The species entered for data set [1] is Homo sapiens. Kind of data set: Selectivity for ROCK1 over p70S6K.
For data set [2], the species on record is Homo sapiens. Kind of data set: Selectivity for ROCK1 over CDK2.
For data set [3], the target named is Rho-associated protein kinase 1 (Homo sapiens, UniProt Q13464). The data set is described as follows: Inhibition of human ROCK1 in Sf9 cells. It is filed as cell-based.
For data set [4], the species on record is Homo sapiens. The data set is described as follows: Selectivity for ROCK1 over MSK1.
For data set [5], the species on record is Homo sapiens. The data set is described as follows: Selectivity for ROCK1 over GSK3-beta.
For data set [6], the species on record is Homo sapiens. The data set is described as follows: Selectivity for ROCK1 over RSK1.
Data set [7] can be described thus: Half life in Sprague-Dawley rat at 1.6 mg/kg, iv. It is filed as ADME, organism-based. Further details: dose 1.6 mg/kg, route intravenous. To be noted: in vivo.
A short description of data set [8]: Oral bioavailability in Sprague-Dawley rat at 3.3 mg/kg, po. It counts as ADME, organism-based. To be noted: in vivo.
A short description of data set [9]: Plasma concentration in spontaneously hypertensive rat at 3 mg/kg, po after 0.5 hrs. It counts as ADME, organism-based. Further details: dose 3 mg/kg, route oral.
Data set [10] in a line: Cmax in Sprague-Dawley rat at 3.3 mg/kg, po. The note with it: in vivo. Further details: dose 3.3 mg/kg, route oral. It counts as ADME, organism-based.
The next data set has as its system Aorta. The data set is described as follows: Relaxation of phenylephrine contracted Sprague-Dawley rat aortic rings. It counts as functional, tissue-based.
The nature of data set [11]: Clearance in Sprague-Dawley rat at 1.6 mg/kg, iv. The note with it: in vivo. It counts as ADME, organism-based. More on the design: dose 1.6 mg/kg, route intravenous.
Data set [12] concerns Rattus norvegicus. Kind of data set: Reduction of mean arterial blood pressure in spontaneous hypertensive rat at 0.3 mg/kg, po. It counts as functional, organism-based. More on the design: dose 0.3 mg/kg.
Data set [13] in a line: Cmax in Sprague-Dawley rat at 1.6 mg/kg, iv. Further details: dose 1.6 mg/kg, route intravenous. To be noted: in vivo. It is filed as ADME, organism-based.
Data set [14] in a line: Plasma concentration in spontaneously hypertensive rat at 3 mg/kg, po after 1 hr. It is filed as ADME, organism-based. Further details: dose 3 mg/kg, route oral.
Data set [15] concerns Rattus norvegicus. Kind of data set: Reduction of mean arterial blood pressure in spontaneous hypertensive rat at 1 mg/kg, po. More on the design: dose 1 mg/kg. It counts as functional, organism-based.
The test system of data set [16] is Rattus norvegicus. The data set is described as follows: Reduction of mean arterial blood pressure in spontaneous hypertensive rat at 3 mg/kg, po. It is filed as functional, organism-based. More on the design: dose 3 mg/kg.
Data set [17] is described as follows: Plasma concentration in spontaneously hypertensive rat at 3 mg/kg, po after 4 hrs. It counts as ADME, organism-based. More on the design: dose 3 mg/kg, route oral.
Data set [18] can be described thus: Plasma concentration in spontaneously hypertensive rat at 3 mg/kg, po after 8 hrs. It is filed as ADME, organism-based. More on the design: dose 3 mg/kg, route oral.
The nature of data set [19]: Volume of distribution in Sprague-Dawley rat at 1.6 mg/kg, iv. It counts as ADME, organism-based. More on the design: dose 1.6 mg/kg, route intravenous. To be noted: in vivo, read-out: Vdss.
The nature of data set [20]: Plasma concentration in spontaneously hypertensive rat at 3 mg/kg, po after 2 hrs. It counts as ADME, organism-based. More on the design: dose 3 mg/kg, route oral.
Data set [21] is described as follows: Clearance in Sprague-Dawley rat at 2.4 mg/kg, iv. It is filed as ADME, organism-based. More on the design: dose 2.4 mg/kg, route intravenous. To be noted: in vivo.
Data set [22] in a line: Cmax in Sprague-Dawley rat at 2.4 mg/kg, iv. It is filed as ADME, organism-based. Further details: dose 2.4 mg/kg, route intravenous. The note with it: in vivo.
Data set [23] is described as follows: Volume of distribution in Sprague-Dawley rat at 2.4 mg/kg, iv. Further details: dose 2.4 mg/kg, route intravenous. It is filed as ADME, organism-based. To be noted: in vivo, read-out: Vdss.
A short description of data set [24]: Half life in Sprague-Dawley rat at 2.4 mg/kg, iv. It counts as ADME, organism-based. More on the design: dose 2.4 mg/kg, route intravenous. To be noted: in vivo.
Data set [25] can be described thus: Cmax in Sprague-Dawley rat at 1 mg/kg, iv. It is filed as ADME, organism-based. More on the design: dose 1 mg/kg, route intravenous. To be noted: in vivo.
Data set [26] can be described thus: Cmax in Sprague-Dawley rat at 2.2 mg/kg, po. The note with it: in vivo. Further details: dose 2.2 mg/kg, route oral. It is filed as ADME, organism-based.
A short description of data set [27]: Oral bioavailability in Sprague-Dawley rat at 2.2 mg/kg, po. It counts as ADME, organism-based. The note with it: in vivo.
The nature of data set [28]: Volume of distribution in Sprague-Dawley rat at 1 mg/kg, iv. It counts as ADME, organism-based. More on the design: dose 1 mg/kg, route intravenous. To be noted: in vivo, read-out: Vdss.
Data set [29] is described as follows: Clearance in Sprague-Dawley rat at 1 mg/kg, iv. It is filed as ADME, organism-based. Further details: dose 1 mg/kg, route intravenous. To be noted: in vivo.
Data set [30] can be described thus: Half life in Sprague-Dawley rat at 1 mg/kg, iv. Further details: dose 1 mg/kg, route intravenous. The note with it: in vivo. It is filed as ADME, organism-based.
Data set [31] in a line: Cmax in Sprague-Dawley rat at 1.2 mg/kg, iv. It counts as ADME, organism-based. More on the design: dose 1.2 mg/kg, route intravenous. To be noted: in vivo.
Data set [32] can be described thus: Volume of distribution in Sprague-Dawley rat at 1.2 mg/kg, iv. It counts as ADME, organism-based. Further details: dose 1.2 mg/kg, route intravenous. The note with it: in vivo, read-out: Vdss.
A short description of data set [33]: Cmax in Sprague-Dawley rat at 3.7 mg/kg, po. More on the design: dose 3.7 mg/kg, route oral. To be noted: in vivo. It counts as ADME, organism-based.
The nature of data set [34]: Oral bioavailability in Sprague-Dawley rat at 3.7 mg/kg, po. It counts as ADME, organism-based. To be noted: in vivo.
Data set [35] can be described thus: Clearance in Sprague-Dawley rat at 1.2 mg/kg, iv. It counts as ADME, organism-based. Further details: dose 1.2 mg/kg, route intravenous. The note with it: in vivo.
The nature of data set [36]: Half life in Sprague-Dawley rat at 1.2 mg/kg, iv. It counts as ADME, organism-based. Further details: dose 1.2 mg/kg, route intravenous. The note with it: in vivo.

Activity calls are given as the source filed them. The calls are words filed in the database; no cut-off is given here. Some results are limits rather than exact numbers.

Sequence of Rho-associated protein kinase 1 (Q13464 whole entry): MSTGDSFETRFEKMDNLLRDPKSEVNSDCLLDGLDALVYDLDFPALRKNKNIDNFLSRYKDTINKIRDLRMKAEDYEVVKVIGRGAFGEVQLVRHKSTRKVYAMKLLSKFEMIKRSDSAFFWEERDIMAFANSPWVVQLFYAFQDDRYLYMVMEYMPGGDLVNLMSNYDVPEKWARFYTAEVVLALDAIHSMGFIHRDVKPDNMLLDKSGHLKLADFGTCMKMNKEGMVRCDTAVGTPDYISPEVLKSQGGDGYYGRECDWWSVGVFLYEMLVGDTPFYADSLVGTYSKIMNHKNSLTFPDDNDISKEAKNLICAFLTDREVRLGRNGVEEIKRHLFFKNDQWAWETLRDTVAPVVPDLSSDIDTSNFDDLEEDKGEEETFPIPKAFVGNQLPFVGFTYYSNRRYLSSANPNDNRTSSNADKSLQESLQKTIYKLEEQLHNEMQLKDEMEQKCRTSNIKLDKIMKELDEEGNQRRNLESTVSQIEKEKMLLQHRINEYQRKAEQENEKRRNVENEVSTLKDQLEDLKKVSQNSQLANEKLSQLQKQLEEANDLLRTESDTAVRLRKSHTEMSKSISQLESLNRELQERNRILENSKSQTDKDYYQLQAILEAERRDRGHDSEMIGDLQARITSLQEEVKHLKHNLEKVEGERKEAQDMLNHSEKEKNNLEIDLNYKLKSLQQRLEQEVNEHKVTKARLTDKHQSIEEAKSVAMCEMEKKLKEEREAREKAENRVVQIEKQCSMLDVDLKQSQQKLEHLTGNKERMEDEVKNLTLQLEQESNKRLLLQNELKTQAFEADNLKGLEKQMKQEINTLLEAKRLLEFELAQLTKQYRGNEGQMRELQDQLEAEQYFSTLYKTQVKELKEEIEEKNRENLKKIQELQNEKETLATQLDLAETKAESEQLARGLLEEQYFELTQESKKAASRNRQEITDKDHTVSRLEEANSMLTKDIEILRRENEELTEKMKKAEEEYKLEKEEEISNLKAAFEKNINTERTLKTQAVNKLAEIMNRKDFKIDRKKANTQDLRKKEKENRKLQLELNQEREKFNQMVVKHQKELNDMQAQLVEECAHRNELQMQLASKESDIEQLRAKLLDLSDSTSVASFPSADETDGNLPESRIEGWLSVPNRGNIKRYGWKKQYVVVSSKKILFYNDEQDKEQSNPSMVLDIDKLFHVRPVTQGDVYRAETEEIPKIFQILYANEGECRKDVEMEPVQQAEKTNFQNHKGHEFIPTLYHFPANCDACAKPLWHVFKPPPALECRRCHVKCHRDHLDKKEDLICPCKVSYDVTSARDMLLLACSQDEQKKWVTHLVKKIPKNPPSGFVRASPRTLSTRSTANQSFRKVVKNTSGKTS

Regarding `CCn1c(-c2nonc2N)nc2cnc(Oc3ccccc3)cc21`, the Selectivity ratio in the data set listed under Homo sapiens [1] is 18; in the data set filed under Homo sapiens [2], over 130; in the data set filed under Homo sapiens [4], 1.5; in the data set filed under Homo sapiens [5], over 500; in the data set listed under Homo sapiens [6], 10. For the same compound, the IC50 (in general, the concentration that gives 50% inhibition) in data set [3] amounted to 30 nM.

`CCn1c(-c2nonc2N)nc2cnc(Oc3cccc(NC(=O)c4ccc(OCCN5CCOCC5)cc4)c3)cc21` [GSK-269962A]: the half-life (in general, the time in which the quantity being followed falls by half) in [7] was 2.2 h. In [8], the bioavailability – broadly, the share of a dose that reaches the circulation, judged against a reference dose that is usually intravenous – turned out to be 78%. The concentration at 0.5 h in data set [9] stood at 280 ng/mL. Also, the highest concentration (Cmax) (commonly the peak of the concentration-time curve) in [10] is 800 ng/mL; in [13], 1270 ng/mL. The same compound showed an IC50 with Aorta of 35 nM. The clearance (in general, a measure of how efficiently the substance is removed, as volume per time) in data set [11] turned out to be 7.6 mL/min/kg. Moreover, the outcome with Rattus norvegicus [12], in the data set with Rattus norvegicus [15] and with Rattus norvegicus [16] was Active. The compound also yielded a concentration at 1 h in data set [14] of 330 ng/mL. In data set [17], the concentration at 4 h was determined as 150 ng/mL. The compound also gave a concentration at 8 h in data set [18] of 88 ng/mL. Further, the Vd in data set [19] worked out at 1.3 L/kg. The concentration at 2 h in data set [20] was 290 ng/mL.

`CCn1c(-c2nonc2N)nc2cnccc21`: the Selectivity ratio in the data set listed under Homo sapiens [1] was 3.1; in the data set listed under Homo sapiens [2], 22; in the data set listed under Homo sapiens [4], 0.18; in the data set listed under Homo sapiens [5], 53; in the data set filed under Homo sapiens [6], 0.63. This compound also displayed an IC50 in [3] of 19 nM.

In the case of `CCn1c(-c2nonc2N)nc2cnc(Oc3cccc(NC(=O)c4ccc(OCCN(C)C)cc4)c3)cc21`, the bioavailability in [8] was found to be 40%. Further, the Cmax in [10] and in data set [22] was 410 ng/mL in each case. In addition, the Selectivity ratio was over 3 in the data set listed under Homo sapiens [1], over 65 in the data set listed under Homo sapiens [4] and over 80 in the data set filed under Homo sapiens [6]. For the same compound, the clearance in [21] stood at 121 mL/min/kg. In addition, the results for the IC50 (in the data set on Aorta; in [3]) were 79 nM and at most 1 nM, respectively. Moreover, in data set [23], the Vd is 8.9 L/kg. The compound also had a half-life in data set [24] of 2.1 h.

In the case of `CCn1c(-c2nonc2N)nc2cnc(Oc3cccc(NC(=O)c4ccc(CN(C)C)cc4)c3)cc21`, the Selectivity ratio is over 3 in the data set listed under Homo sapiens [1], over 52 in the data set filed under Homo sapiens [4] and over 80 in the data set listed under Homo sapiens [6]. Besides, the concentration for half-maximal inhibition (IC50) was 74 nM in the data set on Aorta and at most 1 nM in data set [3]. Besides, the Cmax amounted to 630 ng/mL in data set [25] and 160 ng/mL in [26]. In [27], this compound gave a bioavailability of 47%. Also, the Vd in data set [28] came out at 2.4 L/kg. Also, the clearance in data set [29] worked out at 30 mL/min/kg. This compound showed a half-life in [30] of 1.9 h.

For the compound `CCn1c(-c2nonc2N)nc2cnc(Oc3cccc(NC(=O)c4ccccc4)c3)cc21`, the Cmax in [31] came to 11700 ng/mL; in data set [33], 6940 ng/mL. The Selectivity ratio in the data set filed under Homo sapiens [1] amounted to 3; in the data set filed under Homo sapiens [4] it was 2.2; in the data set filed under Homo sapiens [6], 3.8. Besides, the IC50 in the data set with Aorta came to 106 nM; in data set [3], 4 nM. Further, the Vd in [32] stood at 0.16 L/kg. Also, the bioavailability in data set [34] came out at 35%. The same compound displayed a clearance in data set [35] of 0.18 mL/min/kg. The same compound had a half-life in [36] of 9.6 h.

As for `CCn1c(-c2nonc2N)nc2cnc(Oc3ccc(NC(C)=O)cc3)cc21`, the Selectivity ratio in the data set filed under Homo sapiens [1] is 9.2; in the data set listed under Homo sapiens [2] it was 110; in the data set filed under Homo sapiens [4], 9.7; in the data set filed under Homo sapiens [5], over 160; in the data set listed under Homo sapiens [6], 12. In data set [3], this compound gave an IC50 of 90 nM.

Turning to `CCn1c(-c2nonc2N)nc2cnc(Oc3cccc(S(C)(=O)=O)c3)cc21`, the Selectivity ratio in the data set listed under Homo sapiens [1] was determined as 0.7; in the data set filed under Homo sapiens [4] it was 3.9; in the data set listed under Homo sapiens [5] it was 150; in the data set filed under Homo sapiens [6], 2.7. This compound also showed an IC50 in data set [3] of 33 nM.

For the origin of these results see ChEMBL document CHEMBL1139215, “Discovery of aminofurazan-azabenzimidazoles as inhibitors of Rho-kinase with high kinase selectivity and antihypertensive activity” (J Med Chem, 2007).
